Literature values in patent US6706282B1, “Controlled delivery of phenoxyethyl-substituted 1,2,4-triazolones” (priority 1998, dated 2004).
Structures can show the parent of a compound that is named as a salt.

time of peak plasma concentrations after dosing (conventional immediate release formulations): about one | half-life (in vivo): 2 to 4 h
SMILES: CCc1nn(CCCN2CCN(c3cccc(Cl)c3)CC2)c(=O)n1CCOc1ccccc1 [nefazodone hydrochloride, 2-[3-[4-(3-chlorophenyl)-piperazinyl]propyl]-5-ethyl-4-(2-phenoxyethyl)-2H-1,2,4-triazol-3(4H)-one hydrochloride]
